The values below are quoted from earlier work in PubChem BioAssay AID1259409 (Chemical Carcinogenesis Research Information System (CCRIS), 2018).

Structures are written as SMILES.

The test system of the data set is rodent chemically induced tumor inhibition, incidence and multiplicity. The data set can be described thus: CCRIS tumor inhibitor studies. The conditions noted are these: Dose [Inhibitor]: 0, Route [Inhibitor]: ORAL, Species: RAT, Promoter: NONE USED.

Consider `O=c1oc2c(O)c(O)cc3c(=O)oc4c(O)c(O)cc1c4c23`, for which the “tumour outcome (control, treated, inhibition, significance)” value (Carcinogen: DIETHYLNITROSAMINE, 55-18-5, N-METHYLNITROSOUREA, 684-93-5, 1,2-DIMETHYLHYDRAZINE, 540-73-8, N-BUTYL-N-(4-HYDROXYB, Carcinogen: DIETHYLNITROSAMINE, 55-18-5, N-METHYLNITROSOUREA, 684-93-5, 1,2-DIMETHYLHYDRAZINE, 540-73-8, N-BUTYL-N-(4-HYDROXYB, 1% IN DIET FOR 4 WK BEGINNING 1 DAY PRIOR TO CARCINOGEN TREATMENT (STUDY DURATION: 36 WK), Strain/Sex: F344/MALE, Target Tissue: Type of Lesion: SMALL INTESTINE: CARCINOMA, Dose [Carcinogen]: 100 MG/KG DEN ONCE, 20 MG/KG MNU 4 TIMES, 40 MG/KG DMH 4 TIMES, 0.05% BBN IN DRINKING WATER FOR 2 WK, 0.1% DHPN IN D, Dose [Carcinogen]: 100 MG/KG DEN ONCE, 20 MG/KG MNU 4 TIMES, 40 MG/KG DMH 4 TIMES, 0.05% BBN IN DRINKING WATER FOR 2 WK, 0.1% DHPN IN D) is reported as 5/14 (36%), 0/12 (0%), 100%, p<0.05; the “tumour outcome (control, treated, inhibition, significance)” value (Carcinogen: DIETHYLNITROSAMINE, 55-18-5, N-METHYLNITROSOUREA, 684-93-5, 1,2-DIMETHYLHYDRAZINE, 540-73-8, N-BUTYL-N-(4-HYDROXYB, Carcinogen: DIETHYLNITROSAMINE, 55-18-5, N-METHYLNITROSOUREA, 684-93-5, 1,2-DIMETHYLHYDRAZINE, 540-73-8, N-BUTYL-N-(4-HYDROXYB, 1% IN DIET FOR 4 WK BEGINNING 1 DAY PROIR TO CARCINOGEN TREATMENT (STUDY DURATION: 36 WK), Strain/Sex: F344/MALE, Target Tissue: Type of Lesion: LUNG: ADENOMA, Dose [Carcinogen]: 100 MG/KG DEN ONCE, 20 MG/KG MNU 4 TIMES, 40 MG/KG DMH 4 TIMES, 0.05% BBN IN DRINKING WATER FOR 2 WK, 0.1% DHPN IN D, Dose [Carcinogen]: 100 MG/KG DEN ONCE, 20 MG/KG MNU 4 TIMES, 40 MG/KG DMH 4 TIMES, 0.05% BBN IN DRINKING WATER FOR 2 WK, 0.1% DHPN IN D) was 6/14 (43%), 1/12 (8%), 81%, not significant; the “tumour outcome (control, treated, inhibition, significance)” value (Carcinogen: DIETHYLNITROSAMINE, 55-18-5, N-METHYLNITROSOUREA, 684-93-5, 1,2-DIMETHYLHYDRAZINE, 540-73-8, N-BUTYL-N-(4-HYDROXYB, Carcinogen: DIETHYLNITROSAMINE, 55-18-5, N-METHYLNITROSOUREA, 684-93-5, 1,2-DIMETHYLHYDRAZINE, 540-73-8, N-BUTYL-N-(4-HYDROXYB, 1% IN DIET FOR 32 WK BEGINNING POST CARCINOGEN TREATMENT (STUDY DURATION: 36 WK), Strain/Sex: F344/MALE, Target Tissue: Type of Lesion: KIDNEY: ADENOMA, Dose [Carcinogen]: 100 MG/KG DEN ONCE, 20 MG/KG MNU 4 TIMES, 40 MG/KG DMH 4 TIMES, 0.05% BBN IN DRINKING WATER FOR 2 WK, 0.1% DHPN IN D, Dose [Carcinogen]: 100 MG/KG DEN ONCE, 20 MG/KG MNU 4 TIMES, 40 MG/KG DMH 4 TIMES, 0.05% BBN IN DRINKING WATER FOR 2 WK, 0.1% DHPN IN D) is 4/14 (29%), 2/13 (15%), 48%, not significant; the “tumour outcome (control, treated, inhibition, significance)” value (Carcinogen: DIETHYLNITROSAMINE, 55-18-5, N-METHYLNITROSOUREA, 684-93-5, 1,2-DIMETHYLHYDRAZINE, 540-73-8, N-BUTYL-N-(4-HYDROXYB, Carcinogen: DIETHYLNITROSAMINE, 55-18-5, N-METHYLNITROSOUREA, 684-93-5, 1,2-DIMETHYLHYDRAZINE, 540-73-8, N-BUTYL-N-(4-HYDROXYB, 1% IN DIET FOR 32 WK BEGINNING POST CARCINOGEN TREATMENT (STUDY DURATION: 36 WK), Strain/Sex: F344/MALE, Target Tissue: Type of Lesion: KIDNEY: NEPHROBLASTOMA, Dose [Carcinogen]: 100 MG/KG DEN ONCE, 20 MG/KG MNU 4 TIMES, 40 MG/KG DMH 4 TIMES, 0.05% BBN IN DRINKING WATER FOR 2 WK, 0.1% DHPN IN D, Dose [Carcinogen]: 100 MG/KG DEN ONCE, 20 MG/KG MNU 4 TIMES, 40 MG/KG DMH 4 TIMES, 0.05% BBN IN DRINKING WATER FOR 2 WK, 0.1% DHPN IN D) is reported as 7/14 (50%), 5/13 (38%), 24%, not significant; the “tumour outcome (control, treated, inhibition, significance)” value (Carcinogen: DIETHYLNITROSAMINE, 55-18-5, N-METHYLNITROSOUREA, 684-93-5, 1,2-DIMETHYLHYDRAZINE, 540-73-8, N-BUTYL-N-(4-HYDROXYB, Carcinogen: DIETHYLNITROSAMINE, 55-18-5, N-METHYLNITROSOUREA, 684-93-5, 1,2-DIMETHYLHYDRAZINE, 540-73-8, N-BUTYL-N-(4-HYDROXYB, 1% IN DIET FOR 32 WK BEGINNING POST CARCINOGEN TREATMENT (STUDY DURATION: 36 WK), Strain/Sex: F344/MALE, Target Tissue: Type of Lesion: LARGE INTESTINE: CARCINOMA, Dose [Carcinogen]: 100 MG/KG DEN ONCE, 20 MG/KG MNU 4 TIMES, 40 MG/KG DMH 4 TIMES, 0.05% BBN IN DRINKING WATER FOR 2 WK, 0.1% DHPN IN D, Dose [Carcinogen]: 100 MG/KG DEN ONCE, 20 MG/KG MNU 4 TIMES, 40 MG/KG DMH 4 TIMES, 0.05% BBN IN DRINKING WATER FOR 2 WK, 0.1% DHPN IN D) was 3/14 (21%), 6/12 (50%), -138%, not significant; the “tumour outcome (control, treated, inhibition, significance)” value (Carcinogen: DIETHYLNITROSAMINE, 55-18-5, N-METHYLNITROSOUREA, 684-93-5, 1,2-DIMETHYLHYDRAZINE, 540-73-8, N-BUTYL-N-(4-HYDROXYB, Carcinogen: DIETHYLNITROSAMINE, 55-18-5, N-METHYLNITROSOUREA, 684-93-5, 1,2-DIMETHYLHYDRAZINE, 540-73-8, N-BUTYL-N-(4-HYDROXYB, 1% IN DIET FOR 32 WK BEGINNING POST CARCINOGEN TREATMENT (STUDY DURATION: 36 WK), Strain/Sex: F344/MALE, Target Tissue: Type of Lesion: SMALL INTESTINE: ADENOMA, Dose [Carcinogen]: 100 MG/KG DEN ONCE, 20 MG/KG MNU 4 TIMES, 40 MG/KG DMH 4 TIMES, 0.05% BBN IN DRINKING WATER FOR 2 WK, 0.1% DHPN IN D, Dose [Carcinogen]: 100 MG/KG DEN ONCE, 20 MG/KG MNU 4 TIMES, 40 MG/KG DMH 4 TIMES, 0.05% BBN IN DRINKING WATER FOR 2 WK, 0.1% DHPN IN D) was 6/14 (43%), 0/12 (0%), 100%, < p<0.05. Besides, the “tumour outcome (control, treated, inhibition, significance)” value reads like this: (Carcinogen: DIETHYLNITROSAMINE, 55-18-5, N-METHYLNITROSOUREA, 684-93-5, 1,2-DIMETHYLHYDRAZINE, 540-73-8, N-BUTYL-N-(4-HYDROXYB, Carcinogen: DIETHYLNITROSAMINE, 55-18-5, N-METHYLNITROSOUREA, 684-93-5, 1,2-DIMETHYLHYDRAZINE, 540-73-8, N-BUTYL-N-(4-HYDROXYB, 1% IN DIET FOR 32 WK BEGINNING POST CARCINOGEN TREATMENT (STUDY DURATION: 36 WK), Strain/Sex: F344/MALE, Target Tissue: Type of Lesion: SMALL INTESTINE: CARCINOMA, Dose [Carcinogen]: 100 MG/KG DEN ONCE, 20 MG/KG MNU 4 TIMES, 40 MG/KG DMH 4 TIMES, 0.05% BBN IN DRINKING WATER FOR 2 WK, 0.1% DHPN IN D, Dose [Carcinogen]: 100 MG/KG DEN ONCE, 20 MG/KG MNU 4 TIMES, 40 MG/KG DMH 4 TIMES, 0.05% BBN IN DRINKING WATER FOR 2 WK, 0.1% DHPN IN D) 5/14 (36%), 1/12 (8%), 78%, not significant; (Carcinogen: DIETHYLNITROSAMINE, 55-18-5, N-METHYLNITROSOUREA, 684-93-5, 1,2-DIMETHYLHYDRAZINE, 540-73-8, N-BUTYL-N-(4-HYDROXYBU, Carcinogen: DIETHYLNITROSAMINE, 55-18-5, N-METHYLNITROSOUREA, 684-93-5, 1,2-DIMETHYLHYDRAZINE, 540-73-8, N-BUTYL-N-(4-HYDROXYBU, 1% IN DIET FOR 32 WK BEGINNING POST CARCINOGEN TREATMENT (STUDY DURATION: 36 WK), Strain/Sex: F344/MALE, Target Tissue: Type of Lesion: LARGE INTESTINE: ADENOMA, Dose [Carcinogen]: 100 MG/KG DEN ONCE, 20 MG/KG MNU 4 TIMES, 40 MG/KG DMH 4 TIMES, 0.05% BBN IN DRINKING WATER FOR 2 WK, 0.1% DHPN IN D, Dose [Carcinogen]: 100 MG/KG DEN ONCE, 20 MG/KG MNU 4 TIMES, 40 MG/KG DMH 4 TIMES, 0.05% BBN IN DRINKING WATER FOR 2 WK, 0.1% DHPN IN D) 7/14 (50%), 3/12 (25%), 50%, not significant; (Carcinogen: DIETHYLNITROSAMINE, 55-18-5, N-METHYLNITROSOUREA, 684-93-5, 1,2-DIMETHYLHYDRAZINE, 540-73-8, N-BUTYL-N-(4-HYDROXYBU, Carcinogen: DIETHYLNITROSAMINE, 55-18-5, N-METHYLNITROSOUREA, 684-93-5, 1,2-DIMETHYLHYDRAZINE, 540-73-8, N-BUTYL-N-(4-HYDROXYBU, 1% IN DIET FOR 32 WK BEGINNING POST CARCINOGEN TREATMENT (STUDY DURATION: 36 WK), Strain/Sex: F344/MALE, Target Tissue: Type of Lesion: LUNG: ADENOMA, Dose [Carcinogen]: 100 MG/KG DEN ONCE, 20 MG/KG MNU 4 TIMES, 40 MG/KG DMH 4 TIMES, 0.05% BBN IN DRINKING WATER FOR 2 WK, 0.1% IN DRINKI, Dose [Carcinogen]: 100 MG/KG DEN ONCE, 20 MG/KG MNU 4 TIMES, 40 MG/KG DMH 4 TIMES, 0.05% BBN IN DRINKING WATER FOR 2 WK, 0.1% IN DRINKI) 6/14 (43%), 1/13 (8%), 81%, p<0.05; (Carcinogen: N-NITROQUINOLINE-1-OXIDE, 56-57-5, 400 PPM IN DIET FOR 7 WK BEGINNING 1 WK PRIOR TO START OF CARCINOGEN TREATMENT (STUDY DURATION: 32 WK), Strain/Sex: F344\MALE, Target Tissue: Type of Lesion: TONGUE: CARCINOMA, Dose [Carcinogen]: 20 PPM IN DRINKING WATER FOR 5 WK) 9/15 (60%), 0/15 (0%), 100%, p=0.00035; (Carcinogen: N-NITROSOBENZYLMETHYLAMINE, 937-40-6, 0.4 G/KG IN DIET BEGINNING 2 WK PRIOR TO FIRST CARCINOGEN DOSE (STUDY DURATION: 27 WK), Strain/Sex: F-344/MALE, Target Tissue: Type of Lesion: ESOPHAGUS: TUMOR, Dose [Carcinogen]: 0.5, 1.25 MG/KG 1/WK FOR 18 WK) 15/15 (100%), 15/15 (100%), 0%, not calculated (low dose carcinogen); 15/15 (100. Besides, the outcome (Carcinogen: N-NITROSOBENZYLMETHYLAMINE, 937-40-6, 0.4 G/KG IN DIET BEGINNING 2 WK PRIOR TO FIRST CARCINOGEN DOSE (STUDY DURATION: 20 WK), Strain/Sex: F-344/MALE, Target Tissue: Type of Lesion: ESOPHAGUS: TUMOR, Dose [Carcinogen]: 0.5, 1.25 MG/KG 1/WK FOR 18 WK) is given as 15/15 (100%), 14/15 (93%), 7%, not calculated (low dose carcinogen); 15/15 (100%.
